pKi: −log10 of the molar value.
Tests used:
[1] = target: T1, 5-hydroxytryptamine receptor 1A (Rattus norvegicus, UniProt P19327); experiment: In vitro ability to displace the radioligand [3H]-OH-DPAT from binding to rat 5-hydroxytryptamine 1A receptor
T1 sequence (P19327 whole entry): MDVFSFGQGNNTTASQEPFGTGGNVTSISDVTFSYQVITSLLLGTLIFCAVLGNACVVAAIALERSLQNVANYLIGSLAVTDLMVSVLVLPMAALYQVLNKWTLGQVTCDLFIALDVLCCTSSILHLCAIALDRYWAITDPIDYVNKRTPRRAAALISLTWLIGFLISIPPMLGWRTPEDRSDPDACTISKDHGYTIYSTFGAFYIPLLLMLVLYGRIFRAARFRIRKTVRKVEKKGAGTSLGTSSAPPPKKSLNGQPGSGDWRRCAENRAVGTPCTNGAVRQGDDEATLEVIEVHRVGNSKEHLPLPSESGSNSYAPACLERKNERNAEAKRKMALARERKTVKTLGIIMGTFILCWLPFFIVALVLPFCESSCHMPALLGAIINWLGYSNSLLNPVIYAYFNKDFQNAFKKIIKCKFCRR

[2] = target: 5-hydroxytryptamine receptor 7 (Rattus norvegicus, UniProt P32305); experiment: In vitro ability to displace the radioligand [3H]5-CT from binding to rat 5-hydroxytryptamine 7 receptor
5-hydroxytryptamine receptor 7, sequence (P32305 whole entry): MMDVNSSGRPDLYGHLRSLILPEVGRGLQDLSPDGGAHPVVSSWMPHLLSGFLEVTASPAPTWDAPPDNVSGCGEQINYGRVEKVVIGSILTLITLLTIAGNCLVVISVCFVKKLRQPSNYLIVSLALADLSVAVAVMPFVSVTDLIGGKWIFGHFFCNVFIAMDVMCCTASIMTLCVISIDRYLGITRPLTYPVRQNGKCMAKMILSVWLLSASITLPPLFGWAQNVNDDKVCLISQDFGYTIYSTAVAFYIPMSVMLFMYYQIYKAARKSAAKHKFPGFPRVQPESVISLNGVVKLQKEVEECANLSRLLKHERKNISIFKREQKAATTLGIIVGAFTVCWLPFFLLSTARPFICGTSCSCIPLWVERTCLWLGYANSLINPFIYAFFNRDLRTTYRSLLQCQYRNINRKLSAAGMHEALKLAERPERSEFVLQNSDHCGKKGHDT

| Compound | pKi [1] | pKi [2] |
| --- | --- | --- |
| COc1ccccc1N1CCN(Cc2ccccc2CN2C(=O)CCC2=O)CC1 | 6.38 | 6.04 |
| COc1ccccc1N1CCN(Cc2ccccc2CN2C(=O)c3ccccc3C2=O)CC1 | 6.39 | 6.44 |
| COc1ccccc1N1CCN(C/C=C\CN2C(=O)CCC2=O)CC1 | 6.80 | 6.10 |
| COc1ccccc1N1CCN(C/C=C\CN2C(=O)c3ccccc3C2=O)CC1 | 7.11 | 6.45 |
| COc1ccccc1N1CCN(C/C=C/CN2C(=O)CCC2=O)CC1 | 7.54 | 7.20 |

Stronger by pKi [1], values ahead:

| pKi [1] | pKi [2] | Compound |
| --- | --- | --- |
| 7.82 | 4.94 | COc1ccccc1N1CCN([C@H]2CC[C@H](N3C(=O)CCC3=O)CC2)CC1 |
| 8.10 | 5.69 | COc1ccccc1N1CCN([C@H]2CC[C@H](N3C(=O)c4ccccc4C3=O)CC2)CC1 |
| 8.30 | 7.44 | COc1ccccc1N1CCN(C/C=C/CN2C(=O)c3ccccc3C2=O)CC1 |

From ChEMBL document CHEMBL1137063, “The impact of spacer structure on 5-HT7 and 5-HT1A receptor affinity in the group of long-chain arylpiperazine ligands” (Bioorg Med Chem Lett, 2004)
